This note sets out measurements from PubChem BioAssay (NCI).

Molecules are shown by their SMILES.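 Step 1: Grow cells in 96-well plates. Step 2: Expose to compound for 48 hours at 5 concentrations. Step 3: Interpolate endpoints linearly; if unreached, use highest concentration. At the TGI there is no net growth.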 Some results are limits rather than exact numbers.

What all share (experiment): NCI-60 cell line screen, 48 h
Experiment [1] relates to BT-549 breast.
The test system of experiment [2] is EKVX NSCLC.
For experiment [3], the system named is HCC-2998 colon.
The test system of experiment [4] is HS 578T breast.
Experiment [5] relates to MDA-MB-231 breast.
For experiment [6], the system named is NCI-H23 lung.
The subject of experiment [7] is OVCAR-4 ovarian.
In experiment [8] the test system is SK-MEL-5 melanoma.
In experiment [9] the test system is UO-31 renal.

Regarding `CSCCC(NC(=O)OC(C)(C)C)C(=O)NCCNc1ccc(NCCNC(=O)C(CCSC)NC(=O)OC(C)(C)C)c2c1C(=O)c1ccccc1C2=O` (stereo unspecified), the TGI was 9.59 µM in experiment [1]; > 27.7 µM in [2]; 5.99 µM in experiment [3]; 31.2 µM in experiment [4]; 8.54 µM in experiment [5]; 15.9 µM in [6]. In addition, the TGI is 24.8 µM in experiment [7], 13.2 µM in experiment [8] and > 100 µM in experiment [9].
Regarding `CN1CC(c2ccccc2)N(CCCCN2CC(c3ccccc3)N(C)CC2c2ccccc2)CC1c1ccccc1` (stereo unspecified), the TGI in experiment [1], in experiment [2], in [3], in experiment [4], in experiment [5] and in experiment [7] was > 100 µM each time. The TGI in [8] and in experiment [9] was > 100 µM throughout.
Regarding `COC(=O)C(C)Sc1nc2cc(Cl)ccc2s1` (stereo unspecified), the TGI in [1], in [2], in experiment [3], in experiment [4], in [5] and in [6] was > 100 µM each time. Also, the TGI in experiment [7], in experiment [8] and in experiment [9] was > 100 µM in each case.
For the compound `CC(C)n1c(=O)n(-c2ccccc2)n(C(C)(C)C)c1=O`, the TGI in experiment [1], in [2], in experiment [3], in experiment [4], in [5] and in experiment [6] was > 100 µM in each case. Besides, the TGI in [7], in experiment [8] and in experiment [9] was > 100 µM in each case.
`COc1ccc2c(c1)CCc1c-2n(CCN(C)C)c2ccc(OC)cc12`: the TGI in experiment [1] is > 100 µM; in [2], > 100 µM; in experiment [3], > 100 µM; in [4], 77 µM; in [5] it was > 100 µM; in [6] it was 50.2 µM. The TGI is 68.7 µM in experiment [7], > 100 µM in experiment [8] and 47.8 µM in experiment [9].
Take `O=C(O)c1ccc(Nc2nc3cc(C(F)(F)F)ccc3nc2C(=O)O)cc1`: the TGI in [1], in [2], in [3], in experiment [4], in experiment [5] and in [6] was > 100 µM throughout. Also, the TGI in experiment [7], in experiment [8] and in experiment [9] was > 100 µM in each case.
For `O=C(NCCO)c1ccc(Cl)cc1`, the TGI in experiment [1], in experiment [2], in [3], in experiment [4], in [5] and in [6] was > 100 µM each time. For the same compound, the TGI in experiment [7], in [8] and in experiment [9] was > 100 µM each time.
As for `O=C1C=CC(=O)c2ncccc21`, the TGI in experiment [1] turned out to be 15.5 µM; in [2], 9.86 µM; in experiment [3], 21 µM; in experiment [4] it was 56.4 µM; in [5], 8.06 µM; in experiment [6], 23.6 µM. Also, the TGI in experiment [7] is 11.4 µM; in [8], 18 µM; in experiment [9], 9.03 µM.
As to `Cc1ccc(S(=O)(=O)N2CCN(CCN(C)CCN3CCN(S(=O)(=O)c4ccc(C)cc4)CC3)CC2)cc1`, the TGI in experiment [1] turned out to be 30.6 µM; in experiment [2] it was 55.2 µM; in [3], 29.4 µM; in [4] it was 42.2 µM; in [5], 49 µM; in experiment [6] it was 44.8 µM. Moreover, the results for the TGI in experiment [7], in experiment [8] and in [9] were 43.7 µM, 32.3 µM and 26.8 µM, respectively.
As for `CC(C)(C)N1Cc2ccccc2/C(=C/Sc2ccccc2)C1=O`, the TGI in [1] was 20.1 µM; in [2] it was 34.2 µM; in [3] it was 34.4 µM; in experiment [4], 41.2 µM; in experiment [5], 33.9 µM; in [6], 24.2 µM. Also, the results for the TGI in experiment [7], in [8] and in experiment [9] were 19.6 µM, 20.2 µM and 24.8 µM, respectively.
As to `O=C(O)c1ccccc1/C=N\NC1=NCCCCN1`, the TGI in experiment [1], in experiment [2], in experiment [3], in experiment [4], in experiment [5] and in experiment [6] was > 100 µM throughout. The TGI in experiment [7], in [8] and in experiment [9] was > 100 µM throughout.
As for `COC1/C=C/C(C)C(C(C)C(OC)C(C)CCC(=O)C(C)C(CCC(=O)O)OC)OC(=O)/C=C/C=C(\C)CC(OC)CC2=CC(=O)O[C@@H](C(C)C(OC)CC(OC)/C=C/C(C)C(OC)C1)[C@H]2O` (stereo partly specified), the TGI in experiment [1] was 2.85 µM; in experiment [2], > 5 µM; in experiment [3] it was > 5 µM; in [4] it was > 5 µM; in experiment [5] it was 1.78 µM; in experiment [6] it was > 5 µM. Also, the values for the TGI in experiment [7] and in experiment [8] were > 5 µM and 2.88 µM, respectively.
